Measurements published in patent EP0871764B1, “SCREENING METHOD” (Novartis AG, priority 1995, dated 1997).

biological target: T1, RAC-PK PH domain (Homo sapiens, UniProt P31749); assay: Quenching of the intrinsic Trp fluorescence of the PH domain by phospholipids and inositol phosphates; format: binding; details: calculated from reduction of 345nm fluorescence (excited at 290nm); 10mM Hepes/NaOH, pH 7.0, 10mM MgCl2, 25°C; read-out: Dissociation Constant
T1 construct: pGEX-PH131 contains an in-frame fusion of amino acids 1-131 of human RAC-PKα with GST; GST (N, cleaved yes); made in house; host or cells: E. coli (JM109)
T1 sequence (P31749 1-131): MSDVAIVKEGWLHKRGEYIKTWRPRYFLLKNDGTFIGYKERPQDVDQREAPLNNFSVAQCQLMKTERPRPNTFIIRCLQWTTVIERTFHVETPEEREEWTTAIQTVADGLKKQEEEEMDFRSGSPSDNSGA
Experimental: Purified PH domain obtained according to Example 1 is incubated at a concentration of 1.4µM in 10mM Hepes/NaOH, pH 7.0, 10mM MgCl2, at 25°C.
Under the same conditions as Example 3, the RAC-PK PH domain is incubated in the presence of varying concentrations of phospholipids and inositol phosphates and fluorescence is measured. […]

Compound | Kd [nM]
O=P(O)(O)OC1C(O)C(O)C(O)C(O)C1O (centres unmarked) [Ins (1) monophosphate] | 7000
O=P(O)(O)OC1C(O)C(O)C(OP(=O)(O)O)C(OP(=O)(O)O)C1O (centres unmarked) [Ins (1,4,5) trisphosphate] | 1200
O=P(O)(O)OC1C(O)C(O)C(O)C(O)C1O (centres unmarked) [Ins (2) monophosphate] | 8400

Stronger by Kd, values ahead:

Kd [nM] | Compound
900 | O=P(O)(O)OC1C(O)C(O)C(OP(=O)(O)O)C(O)C1O (centres unmarked) [Ins (1,4) bisphosphate]
400 | Ptd-Ins (4,5)bisphosphate
